Assay results: patent publication US20130338114A1, “COMPOSITIONS FOR INCREASING STRENGTH, MUSCLE MASS, AND LEAN BODY MASS” (Chemi Nutra, priority 2012, published 2013)
Blank lines part the entries; values can stand above or below the molecule they belong to.

What was measured:
[1] = LC/MS/MS analysis of LPA and PA in human plasma after oral PA (Example 8); settings: in vivo
Text: Lyso-phosphatidic acid (LPA) and phosphatidic acid (PA) from human plasma includes a physical distribution of molecules varying in their fatty acids esterified to the sn-1 and sn-2 positions of glycerol-3-phosphate. The differences in polarity among the fatty acid substituted structures provide a means to resolve individual species under reversed phase chromatographic conditions. This analysis coupled with selective mass spectrometric detection based on molecular weight and distinctive fragmentation for LPA and PA compounds provided the basis for quantitation in the samples described herein. Total LPA and PA content are measured as the sum of the individual species measured.
Human plasma of a subject was analyzed after administration of lyso-phosphatidic acid and phosphatidic acid. One subject consumed 2 g of PA in form of Mediator® (Chemi Nutra). The data from the study provided the composition and concentration of PA and lyso-PA in human blood plasma as a baseline value, and changes in PA and lyso-PA concentrations after 30 minutes, 1 hour, 2 hours, 3 hours and 7 hours. It was determined that PA administration results in increases in lyso-PA and PA concentrations in human blood plasma.
An ultra performance liquid chromatograph with triple quadrupole mass spectrometry (LC/MS/MS) method was utilized to measure the content of LPA and PA molecular species in human plasma. A Waters Acquity™ Ultra-performance liquid chromatography system coupled with an AB Sciex 5500 tandem quadrupole mass spectrometer was the instrumentation platform.
Column: Agilent, Eclipse™ XDB-C8 4.6×150 mm, 1.8 μm, sn. USHAN01857, pn. 927975-906. Flow=1 mL/minute at 40° C. Mobile phases: A=70:28.5:1.5 (/v) methanol:water:acetic acid with 0.08% TEA/v;
The identified molecular species were detected using a multiple reaction monitoring (MRM) technique for the -ve mode exact mass of [M-H]^− and the corresponding fragment 153 amu. […]
The content of each molecular species was calculated from the internal standards present in each sample extract. […]

[2] = system: known non-responder to creatine supplementation; assay: Creatine non-responder Subject B (MP): body weight and total strength, three-week strength training program; format: in vivo, human; settings: subject two
Description: patient two, 185 cm tall, also a known non-responder to creatine supplementation, followed a three-week strength training program while testing whether supplementation with PA-enriched-phospholipid improves creatine response. Total starting total body weight and strength were measured on day one, followed by the training program, consisting of concentric and eccentric isotonic lifting exercises that worked the upper and lower body muscle groups with either free weights or weight machines used once or twice weekly. Strength training was performed three times per week with at least one day of rest between sessions, which alternated between lower and upper body exercises. During the three-week period, a total of 10 training sessions (five upper body and five lower body) were performed. Each exercise included two sets of ten repetitions at 40% and 65% 1RM, followed by two sets of 3 to 5 repetitions at 90% 1RM.
The lower body exercise included seven different exercises: seated leg press, leg curls, standing calf raises, leg extension, inclined leg lift, inverted situps (back extension) and 45° inclined situps. The upper body exercise consisted of seven different exercises: bench press, latissimus pulldown, triceps pulldown, inclined dumbbell curls, seated preacher curls, seated rows, and CyBec Pec Fly. Total upper body and lower body weight lifted were calculated as the average weight lifted during the last three sets multiplied by the average repetition in each set. Total strength was determined as the combined lower and upper total weight lifted. […] Strength was measured on days 1 and 22.
A four-week rest period followed the first three-week training program. The same program was repeated twice, the control was supplemented with creatine monohydrate (Creapure®, Alzchem, Germany), 5 grams per day of five grams creatine monohydrate for 21 days. During the second program, creatine monohydrate was given as for the control program with the addition of 1 gram per day PA-enriched phospholipid (Chemi Nutra, White Bear Lake, Minn.), which contained about 50% PA.

[3] = system: known non-responder to creatine supplementation; assay: Creatine non-responder Subject A (RJ): body weight and total strength, two-week strength training program; format: in vivo, human; settings: subject one
Description: patient one, 198 cm tall, a known non-responder to creatine supplementation, followed a two-week strength training program while testing whether supplementation with PA-enriched-phospholipid improves creatine response. Total starting body weight and strength were measured on day one, followed by the training program, consisting of concentric and eccentric isotonic lifting exercises that worked the upper and lower body muscle groups. Either free weights or weight machines were used once or twice weekly. Strength training was performed three times per week with at least one day of rest between sessions, which alternated between lower and upper body exercises. During the two-week period, a total of six training sessions (three upper and three lower) were performed. Each exercise included two sets of ten repetitions at 30% and 60% 1RM, followed by two sets of 3 to 5 repetitions at 90% 1RM. The lower body exercise included seven different exercises: seated leg press, leg curls, standing calf raises, leg extensions, inclined leg lift, inverted situps (back extension) and 45° inclined situps. The upper body exercise consisted of seven different exercises: bench press, latissimus pulldown, triceps pulldown, inclined dumbbell curls, seated preacher curls, seated rows, and CyBec Pec Fly. Total upper body weight and lower body weight lifted were calculated as the average weight lifted during the last three sets multiplied by the average repetition in each set. Total strength was determined as the combined lower and upper total weight lifted. Total body weight was determined after day 8 and day 15. Strength was measured on days 1 and 15. A four-week rest period followed the first two-week training program. The same program was repeated twice, the control was supplementation of creatine monohydrate (Creapure, Alzchem, Germany) 4 times 5 grams per day for five days of loading, followed by nine days of five grams creatine monohydrate. During the second program, creatine monohydrate was given as for the control program with the addition of PA-enriched phospholipid (Chemi Nutra, White Bear Lake, Minn.) which was about 50% PA.

plasma concentration, Time 0 @10 AM [1]: 13.00 nM
Compound: CCCCCCCCCCCCCC(=O)OC[C@@H](O)COP(=O)(O)O [14:0 LPA]

Compound: CN(CC(=O)O)C(=N)N [Creatine Supplement, N-methyl-N-guanyl glycine]
body weight, day 1 ([2]; day 1): 81.9 kg
increase in total strength (total weight lifted) ([2]; day 1 to day 22): 5%
body weight, day 10 ([2]; day 10): 81.5 kg
body weight, day 22 ([2]; day 22): 81.2 kg
body weight, day 1 ([3]; day 1): 88.8 kg
increase in total strength (total weight lifted) ([3]; day 1 to day 15): 5%
body weight, day 8 ([3]; day 8): 88.3 kg
body weight, day 15 ([3]; day 15): 88.0 kg

plasma concentration, Time 0 @10 AM [1]: 0.00 nM
Compound: CCCCCCCCCCCCCCCCCC(=O)OC[C@@H](O)COP(=O)(O)O [18:0 LPA]

plasma concentration, Time 0 @10 AM [1]: 51.33 nM
Compound: CCCCCCCCCCCCCCCC(=O)OCC(O)COP(=O)(O)O (centres unmarked) [16:0 LPA]
